Results as given in US20240424010A1, “NICOTINAMIDE RIBOSIDE TRIOLEATES CHLORIDE, COMPOSITIONS CONTAINING THIS COMPOUND, AND METHODS OF MAKING AND USING THIS COMPOUND” (SOCIETE DES PRODUITS NESTLE S.A., priority 2021, published 2024).

Key:
Format in all cases: physicochemical
[1] = Stability of NRTOCl and NRCl in DI water at 35° C. for 28 days (released nicotinamide by HPLC)
Experimental: Although NRTOCl is a quaternary ammonium salt, it was not dissolved in water due to the existence of three groups of oleate fatty ester in its structure. Therefore, for the stability study of NRTOCl, this compound was dispersed in DI water using 1% ethanol as a cosolvent. For this purpose, 15 mg of NRTOCl was dissolved in 0.15 ml of ethanol (1%) and then 14.85 ml of DI water was added to the mixture and gently shaken. […] Although the average size of NRTOCl in this sample was 192 nm, the images of TEM disclosed smaller particles with around 50 nm and oval and spherical shapes with aspect ratio close to unity (FIGS. 10A-10C). In the nanoparticles, the NRTOCl structures are stacked on top of each other layer-by-layer. The highly positive charge of NRTO makes the nanoparticles stable in the aqueous phase. After dispersion of NRTOCl in DI water, NRCl was dissolved in DI water, and the stability of these samples were studied at 35° C. for 28 days (FIG. 11). The concentration of each sample was 1000 ppm. As during the hydrolysis reaction of NRTO and NR, both of these compounds released nicotinamide (FIG. 12), and by measuring the released amount of nicotinamide in each sample with HPLC, the remaining amounts of NRTO and NR in each sample were calculated. During this study, any release of NR from NRTO sample was not detected. It signifies that the heavy ester groups in NRTO sample are not hydrolyzed during the time of stability study. Because this study was performed in DI water and the conditions were mild, the NRTO was hydrolyzed from its N-glycoside bond.

[2] = Hydrolysis stability of NRTOCl emulsions and NRCl in water at room temperature for 42 days
Experimental: After each specific time of stability for NRTOCl and NRCl emulsions, 1.5 mL of each emulsion was centrifuged (14,000 rpm) for 20 minutes at room temperature. […] However, during this time of stability study, 52.0% NR was intact in water at room temperature. […] During this time, these emulsions were stable without visible phase separation. A little increase in the average size of the NRTO droplets occurred in these emulsions, so that in Cas emulsion, the average size increased from 1020 nm to 1281 nm, and in Cas-Lec emulsion, this parameter increased from 1012 nm to 1106 nm.

[3] = Hydrolysis stability of NRTOCl and NRCl oil-in-water emulsions and NRCl in water at 35° C. for 26 days; details: 35° C., 26 days; for times more stable than NR(Cl) in emulsion: canola oil-in-water emulsion with sodium caseinate
Experimental: The emulsion was prepared using 480 mg of oil stock containing 15 wt. % NRTOCl in canola oil and an aqueous phase (14.52 g) of Na-caseinate (2 wt. %), KCl (0.3 wt. %), NaCl (0.1 wt. %), CaCl2 (0.2 wt. %) and NaN3 (0.01 wt. %).
The emulsion was-prepared using 480 mg of oil stock containing 15 wt. % NRTOCl in canola oil and 0.025 g of lecithin. The aqueous phase (14.5 g) contained Na-caseinate (2 wt. %), KC (0.3 wt. %), NaCl (0.1 wt. %), CaCl2 (0.2 wt. %) and NaN3 (0.01 wt. %).
The emulsion was-prepared using 480 mg of oil stock containing 15 wt. % NRTOCl in canola oil and an aqueous phase (14.52 g) of polysorbate 80 (Tween 80) (2 wt. %).
The emulsion was prepared using around 480 mg of canola oil in an aqueous phase (14.52 g) of NRCl (19 mg), Na-caseinate (2 wt. %), KCl (0.3 wt. %), NaCl (0.1 wt. %), CaCl2 (0.2 wt. %) and NaN3 (0.01 wt. %).
After each specific time of stability for NRTOCl and NRCl emulsions, 1.5 mL of each emulsion was centrifuged (14,000 rpm) for 20 minutes at room temperature.
Since NRTOCl is a very hydrophobic compound, to evaluate its stability in oil phase, an emulsion system was used to study the stability of NRTOCl as a function of time. For this purpose, a 15% w/w solution of NRTOCl in canola oil was used for making different emulsions with Na-caseinate, Tween 80 and lecithin as the emulsifiers (2 wt. %) at room temperature.
When Na-caseinate was used as an emulsifier, the aqueous phase must be a solution of NaCl (0.1 wt. %), CaCl2 (0.2 wt. %) and KCl (0.3 wt. %) because caseinate anion with minus charge and NRTO with positive charge immediately aggregated in DI water. The total oil phase in these emulsions were 3.2 wt. %, and the concentration of NRTOCl in total volume of each emulsion (15 mL) was 4.4 mM. In the emulsions that used Na-caseinate as an emulsifier, NaN3 (0.01 wt. %) was added to prevent the growth of bacteria. When the NRTOCl emulsion was made by 2 wt. % Na-caseinate, its average size and zeta potential in this emulsion (Cas emulsion) were 1020 nm and −14.4 mV respectively.
After making NRTOCl emulsions, a NRCl in canola oil-in-water emulsion was attempted as a control experiment using 3.2% canola oil. The aqueous phase was a solution of Na-caseinate (2 wt. %), NaCl (0.1 wt. %), CaCl2 (0.2 wt. %), KCl (0.3 wt. %) and NaN3 (0.01 wt. %). The concentration of NRCl in total volume (15 mL) of this emulsion was 4.4 mM. Moreover, 15 mL of NRCl solution in DI water was prepared with 4.4 mM concentration as the other control experiment. After preparing three NRTOCl emulsions and two control experiment samples, hydrolysis stability of each sample was studied at 35° C. for 26 days (FIG. 14). The rate of degradation was measured by determination of the released nicotinamide from each sample. […]

CCCCCCCC/C=C\CCCCCCCC(=O)OC[C@H]1O[C@@H]([n+]2cccc(C(N)=O)c2)[C@H](OC(=O)CCCCCCC/C=C\CCCCCCCC)[C@@H]1OC(=O)CCCCCCC/C=C\CCCCCCCC.[Cl-] [NRTOCl, nicotinamide riboside trioleates chloride]
release of NR from NRTO sample (ester hydrolysis) during stability study ([1]; DI water): not detected
remaining amount after 28 days ([1]; DI water, 1000 ppm, 28 days): 53.3%
times more stable than NRCl in water ([1]; 28 days): 88 times
times more stable than NRCl in water ([1]; 28 days, listed as NRTO): more than 88 times
released NR from NRTO (hydrolysis of ester groups) ([2]; all NRTO stability conditions): no released NR
hydrolysis of NRTO after 42 days ([2]; canola oil-in-water emulsion (sodium caseinate), room temperature, 42 days): 5%
times more stable than NR(Cl) in emulsion [3]: 213 times
times more stable than NR(Cl) in emulsion ([3]; listed as NRTO): about 213 times
remaining amount after 26 days in emulsion ([3]; canola oil-in-water emulsion, 4.4 mM): 93.7%
